How the values were obtained:
Test in all cases: Challenge test in broth
Type in all cases: cell-based
Settings in all cases: Tryptic Soy Broth, blend added at 0.5% v/v
[1] = system: Candida albicans (ATCC 10231)
Source text: (§1) A challenge protocol similar to the CTFA method was followed to assess efficacy against a broad spectrum of microorganisms. The four separate inocula were: Staphylococcus aureus (ATCC 6538), Pseudomonas aeruginosa (ATCC 9027) and Enterobacter gergoviae (cosmetic isolate), Candida albicans (ATCC 10231), and mixed molds Aspergillus niger (ATCC 6275) and a Penicillium sp. cosmetic isolate. Tubes containing 20 milliliters of broth were inoculated with approximately 1,500,000 bacteria per gram, 50,000 yeast cells per gram or 100,000 mold spores per gram. Individual challenges were prepared from overnight slants of bacteria and yeast cultures and from heavily sporulating mold cultures, 7 to 10 days old. All samples were plated quantitatively for viable organisms after 24 hours and 8 days.

[2] = system: Pseudomonas aeruginosa (ATCC 9027) and Enterobacter gergoviae (cosmetic isolate)
Source text: as §1

[3] = system: Staphylococcus aureus (ATCC 6538)
Source text: as §1

[4] = system: mixed molds Aspergillus niger (ATCC 6275) and a Penicillium sp. cosmetic isolate
Source text: as §1

## OCCOc1ccccc1 [2-Phenoxyethanol]
[1]
  Colony Forming Units per Milliliter of Broth (CFU/ml) after 8 Days: 4.0 × 10^3 CFU/ml
[2]
  Colony Forming Units per Milliliter of Broth (CFU/ml) after 8 Days: 9.1 × 10^7 CFU/ml
[3]
  Colony Forming Units per Milliliter of Broth (CFU/ml) after 8 Days: 3.2 × 10^8 CFU/ml
[4]
  Colony Forming Units per Milliliter of Broth (CFU/ml) after 8 Days: 5.8 × 10^2 CFU/ml
